Measurements from PubChem BioAssay (NCI).
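Cells were grown in 96-well plates and exposed to each compound for 48 hours at five concentrations; endpoints were interpolated linearly between bracketing concentrations, or set to the highest concentration if not reached. Abbreviation: GI50, concentration required for 50% inhibition of growth. TGI marks complete inhibition of growth.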

Legend:
Assay in all cases: inhibition of tumour cell growth, NCI panel, 48 h
HCC-2998 colon = tested on: HCC-2998 colon
A498 renal = tested on: A498 renal
COLO 205 colon = tested on: COLO 205 colon
HCT-116 colon = tested on: HCT-116 colon
A549 NSCLC = tested on: A549 NSCLC
OVCAR-8 ovarian = tested on: OVCAR-8 ovarian
SK-MEL-5 melanoma = tested on: SK-MEL-5 melanoma
DMS 114 small cell lung = tested on: DMS 114 small cell lung
HL-60(TB) leukemia = tested on: HL-60(TB) leukemia
KM20L2 colon = tested on: KM20L2 colon
SR leukemia = tested on: SR leukemia

Row | SMILES | GI50 (HCC-2998 colon) [µM] | TGI (HCC-2998 colon) [µM] | GI50 (A498 renal) [nM] | TGI (A498 renal) [µM] | GI50 (COLO 205 colon) [µM] | TGI (COLO 205 colon) [µM] | GI50 (HCT-116 colon) [nM] | TGI (HCT-116 colon) [µM] | GI50 (A549 NSCLC) [nM] | TGI (A549 NSCLC) [µM] | GI50 (OVCAR-8 ovarian) [nM] | TGI (OVCAR-8 ovarian) [µM] | TGI (SK-MEL-5 melanoma) [µM] | TGI (DMS 114 small cell lung) [µM] | TGI (HL-60(TB) leukemia) [µM] | TGI (KM20L2 colon) [µM] | TGI (SR leukemia) [µM] | GI50 (SR leukemia) [nM] | GI50 (HL-60(TB) leukemia) [nM]
1 | O=[N+]([O-])c1ccc(N/N=C\c2ccc(O)cc2O)nc1 | 3.94 | > 100 | > 100000 | > 100 | 5.56 | > 100 | 2110 | > 100 | 2470 | > 100 | 1520 | > 100 |  |  |  |  |  |  | 
2 | CSc1nc(NC2OC(CO)C(O)C(O)C2O)c(N)c(=O)[nH]1 (configuration not stated) |  | > 100 |  | > 100 |  | > 100 |  | > 100 |  | > 100 |  | > 100 | > 100 | > 100 | > 100 | > 100 |  |  | 
3 | O=c1n(CC2CO2)c2ccccc2n1CC1CS1 (configuration not stated) |  | > 100 |  |  |  | > 100 |  | > 100 |  | > 100 |  | > 100 |  | > 100 | 87.7 | > 100 | > 100 |  | 
4 | COc1ccc(Nc2cnc3cc(N)ccc3n2)cc1OC |  | > 100 |  |  |  | > 100 |  | > 100 |  |  |  | > 100 | > 100 | > 100 | 62.1 | > 100 | > 100 |  | 
5 | O=C(O)c1cc2sc(C(=O)O)cc2s1 |  |  |  | > 100 |  | > 100 |  | > 100 |  | > 100 |  |  | > 100 | > 100 | > 100 | > 100 | > 100 |  | 
6 | COC(=O)C(Cc1cc(OC)c(OC)c(OC)c1)(NC(=O)c1ccccc1)P(=O)(OC)OC (configuration not stated) |  | > 100 |  | > 100 |  | > 100 |  | > 100 |  | > 100 |  | > 100 | > 100 | > 100 | > 100 | > 100 | > 100 |  | 
7 | CCCCCCCCC[C@@H]1C[C@H](O)[C@H](Cc2ccccc2)N1C(=O)OC(C)(C)C |  | 27.8 |  | 33.7 |  | 31.1 |  | 31.9 |  | 32.6 |  | 34.3 | 33.1 | 32.4 | 48.7 | 34.5 | 46.2 |  | 
8 | COc1cc(/C=C2\CCCC3=C2N=C2SC=NN2C3c2cc(OC)c(OC)c(OC)c2)cc(OC)c1OC (configuration not stated) |  |  | 1480 | 3.89 |  |  | 1760 | 3.41 | 2950 | > 100 | 3230 | 29.8 |  |  | 9.49 |  | 9.47 | 2550 | 2930
9 | Nc1[nH]nc2c1Cc1c(n(Cc3ccc(Cl)cc3)c3ccccc13)C(=O)N2 |  | 24.6 |  | 29.7 |  | 23.7 |  | 21.8 |  | 46.2 |  | 39.2 | 17.6 |  | 10.2 |  | > 100 |  | 
